“Also recorded” adds a separate entry of the source. Like-named read-outs stand apart in the source and are kept apart here.
Experiments:
polymodal nociceptors [1] = tested on: polymodal nociceptors; parameters: species or system Sprague-Dawley rats; conditions: rat, in vivo
polymodal nociceptors [2] = format: in vivo, Sprague-Dawley rats; conditions: for Neurogenic inflammation, Evan's blue: 30 min; for Evan's blue extravasation / less potent than RTX for induction of Evan's blue extravasation: rat, in vivo
polymodal nociceptors [3] = test: animal or person; format: in vivo, Sprague-Dawley rats
[4] = tested on: polymodal nociceptor neurons; conditions: for RTX-like effects: in vivo
protein kinase C [5] = conditions: read-out: KI, binding affinity to protein kinase C; cited from earlier work
polymodal nociceptors [6] = test: animal or person; format: in vivo, Sprague-Dawley rats; remark: listed apart in the source
protein kinase C [7] = format: binding; conditions: for Ki: read-out: KI, binding affinity to protein kinase C
mouse ear = conditions: in vivo; cited from earlier work
polymodal nociceptors [8] = tested on: polymodal nociceptors; parameters: species or system Sprague-Dawley rats; conditions: rat, in vivo; remark: listed apart in the source
polymodal nociceptors [9] = conditions: rat, in vivo; cited from earlier work
[10] = rat, in vivo; cited from earlier work
[11] = tested on: polymodal nociceptor neurons; conditions: in vivo; cited from earlier work
[12] = mouse, in vivo; cited from earlier work
[13] = parameters: species or system rats; conditions: rat, in vivo
[14] = Rattus norvegicus, sc, 6 hr, read-out: Systemic desensitization against neurogenic inflammation, inhibition
[15] = Rattus norvegicus, sc, 6 h, read-out: Systemic desensitization against neurogenic pain, inhibition

| Structure (SMILES) | RPP (Relative Pain-Producing Potency) (polymodal nociceptors [1]) | Neurogenic inflammation, Evan's blue (polymodal nociceptors [2]) | Evan's blue extravasation (polymodal nociceptors [2]) | inhibition at 0.3 mg/kg (polymodal nociceptors [3]; [14]) [%] | RTX-like effects [4] | activity in eye-wiping assay / pain induction (polymodal nociceptors [1]) | inhibition at 0.3 mg/kg (polymodal nociceptors [6]; [15]) [%] | Relative Affinity (protein kinase C [7]) | reduction of protein kinase C binding affinity by the 20-homovanillate ester (protein kinase C [7]) [fold] | Ki (protein kinase C [7]) [nM] | other results |
| --- | --- | --- | --- | --- | --- | --- | --- | --- | --- | --- | --- |
| C=C(C)[C@@]12O[C@@]3(c4ccccc4)O[C@@H]1[C@@H]1[C@@H]4O[C@]4(CO)[C@@H](O)[C@]4(O)C(=O)C(C)=C[C@H]4[C@@]1(O3)[C@H](C)[C@H]2OC(=O)/C=C/C=C/c1ccccc1 [Mez, Mezerein] | 0.1 | 0 | slight extravasation | 0 | inactive |  |  |  |  |  | Ki (protein kinase C [5]): 0.58 ± 0.06 nM |
| C=C(C)[C@@]12O[C@@]3(c4ccccc4)O[C@@H]1[C@@H]1[C@@H]4O[C@]4(COC(=O)Cc4ccc(O)c(OC)c4)[C@@H](O)[C@]4(O)C(=O)C(C)=C[C@H]4[C@@]1(O3)[C@H](C)[C@H]2OC(=O)/C=C/C=C/c1ccccc1 [Mez-HV, Mezerein 20-homovanillate] | 0.1 | 0 | No extravasation | 0 | inactive | very weak pungency; also recorded: very weak activity | 0 | 690 | 690 | 400 ± 110 | potency in eye-wiping assay, less potent than RTX and dPP-HV (polymodal nociceptors [1]): approximately 4 orders of magnitude; less potent than RTX for induction of Evan's blue extravasation (polymodal nociceptors [2]): at least 30 fold; desensitization to chemically-induced pain and to neurogenic inflammation (polymodal nociceptors [6]; rat, in vivo): No activity; also recorded: inactive |
| C=C(C)[C@]12C[C@@H](C)[C@@]34O[C@](Cc5ccccc5)(O[C@@H]1[C@@H]3C=C(CO)C[C@]1(O)C(=O)C(C)=C[C@@H]41)O2 [ROA, Resiniferonol 9,13,14Orthophenylacetate] | 1 | 0 |  | 0 | totally inactive |  | 0 |  |  | 36 ± 9 | less potent than RTX for RTX-characteristic biological responses (polymodal nociceptors [1]): at least 1000 fold; less active than dPP or mezerein in competing for phorbol ester binding sites on protein kinase C (protein kinase C [7]): 100 fold; potency in ear reddening assay, less than dPP (mouse ear): 25 fold; potency in ear reddening assay, less than mezerein (mouse ear): 33 fold |
| C=C(C)[C@]12C[C@@H](C)[C@@]34O[C@](Cc5ccccc5)(O[C@@H]1[C@@H]3C=C(COC(=O)Cc1ccc(O)c(OC)c1)C[C@]1(O)C(=O)C(C)=C[C@@H]41)O2 [RTX, Resiniferatoxin] | 1000 | 91.6 ± 3.6 |  | 100 |  | comparable activity |  | 11 | 11 | 404 ± 63 | delay of eye-wiping movements after instillation (polymodal nociceptors [1]): 5 to 10 s; Local desensitization against neurogenic pain, inhibition (polymodal nociceptors [8]): 43%; inhibition at 0.01 mg/kg (polymodal nociceptors [6]; [15]): 100%; dose giving a detectable Evan's blue extravasation response (polymodal nociceptors [9]): 3×10^-6 g/paw; dose producing a substantial drop in body temperature [10]: 10^-7 g/kg; more potent than phorbol 12-myristate 13-acetate in mouse ear erythema assay (mouse ear): 1000 fold; more potent compared to capsaicin [11]: 3-4 orders of magnitude; body temperature in mice [12]: dramatic fall in body temperature |
| COc1cc(CNC(=O)CCCC/C=C/C(C)C)ccc1O [capsaicin] |  |  |  |  |  |  |  |  |  |  | body temperature in mice [12]: dramatic fall in body temperature |
| CC1=C[C@H]2[C@@]3(O)[C@H](C)C[C@]4(OC(=O)Cc5ccccc5)[C@H]([C@@H]3C=C(CO)C[C@]2(O)C1=O)C4(C)C [dPP, 12-deoxyphorbol 13-phenylacetate] | 1 | 0 | slight extravasation | 0 | inactive |  |  |  |  | 0.64 ± 0.01 |  |
| COc1cc(CC(=O)OCC2=C[C@H]3[C@@H]4C(C)(C)[C@]4(OC(=O)Cc4ccccc4)C[C@@H](C)[C@]3(O)[C@@H]3C=C(C)C(=O)[C@@]3(O)C2)ccc1O [dPP-HV, 20-Homovanillic-12-deoxyphorbol 13-phenylacetate] | 1000 | 0 | No extravasation | 26 | more active than capsaicin and less active than RTX | comparable to RTX; also recorded: comparable activity | 19 | 130 | 130 | 82 ± 13 | delay of eye-wiping movements after instillation (polymodal nociceptors [1]): 20 to 30 s; Local desensitization against neurogenic pain, inhibition (polymodal nociceptors [8]): 78%; potency relative to RTX for desensitization of pain upon local administration (polymodal nociceptors [8]): ≤ 10 fold; less potent than RTX for induction of Evan's blue extravasation (polymodal nociceptors [2]): at least 30 fold; desensitization to chemically-induced pain and to neurogenic inflammation (polymodal nociceptors [6]; rat, in vivo): able to desensitize; relative potency for systemic desensitization to chemically induced pain, less than RTX (polymodal nociceptors [6]; rat, in vivo): approximately 3000 fold; inhibition at 1 mg/kg (polymodal nociceptors [3]; [14]): 62%; relative potency for inhibiting xylene-induced Evan's blue extravasation, less than RTX (polymodal nociceptors [3]; rat, in vivo): 300 fold; induction of hypothermia [13]: totally inactive; less potent than RTX for induction of hypothermia [13]: at least 4 orders of magnitude; less potent than RTX in the other RTX responses / in vivo assays [4]: 2-4 orders of magnitude |
